Ends that are not written are not given here.
How the values were obtained:
ERα [1] = biological target: T1, ERα (Homo sapiens, UniProt P03372); experiment: IL-6-luc transcription in HeLa cells transfected with ERα; format: cell-based; design: expression vectors encoding the full length ERα or its E domain; expressed in transfected cells; host or cells: HeLa; settings: ERα carrying HeLa cells, 10^−8 M E2
T1 sequence (P03372 1-595): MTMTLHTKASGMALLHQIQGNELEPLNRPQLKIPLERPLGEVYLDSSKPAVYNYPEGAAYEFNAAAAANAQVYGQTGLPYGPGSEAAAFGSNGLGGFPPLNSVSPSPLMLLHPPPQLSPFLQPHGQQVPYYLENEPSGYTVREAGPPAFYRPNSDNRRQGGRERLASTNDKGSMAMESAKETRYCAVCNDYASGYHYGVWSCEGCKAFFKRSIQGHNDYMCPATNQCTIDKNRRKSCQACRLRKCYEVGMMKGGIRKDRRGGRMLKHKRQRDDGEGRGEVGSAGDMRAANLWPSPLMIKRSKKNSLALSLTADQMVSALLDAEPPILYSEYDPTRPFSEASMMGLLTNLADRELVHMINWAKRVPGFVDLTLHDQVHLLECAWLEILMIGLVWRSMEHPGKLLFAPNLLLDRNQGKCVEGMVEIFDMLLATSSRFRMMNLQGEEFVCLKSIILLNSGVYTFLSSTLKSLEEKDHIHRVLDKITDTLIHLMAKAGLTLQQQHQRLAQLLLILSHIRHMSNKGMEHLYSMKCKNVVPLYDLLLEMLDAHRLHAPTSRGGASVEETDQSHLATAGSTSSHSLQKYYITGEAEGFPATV
Source text: (§1) A. HeLa cells were transiently transfected with the ERα expression vector alone or together with a vector carrying a fusion of the α-II peptide with the GAL4 DNA binding domain driven by the SV40 promoter. In addition, cells were transfected with ERE-luc or IL-6-luc for the transcription studies; or with EGFP-nuc for the apoptosis experiments. […] B. HeLa cells were transfected with ERα or ERβ alone or together with expression vectors carrying 2X293 or 2XF6 peptides. […] C. HeLa cells were transfected with a vector carrying the GRIP peptide alone or together with ERα.
(§2) DNA constructs. […] Bio. […] The sequence for peptide αII is […] (SEQ ID NO.: 1). […] (SEQ ID NO.: 3). The sequence for GRIP is […] […] […] (SEQ ID NO.: 4). […] The forward primer contained the restriction site for SalI and the ERα Kozak sequence and the reverse primer contained the BamH1 restriction site. Amplified PCR products were subcloned into the SalI/BamH1 restriction site of pCMV.
(§3) Transient transfections. HeLa cells were plated at 5×10^4/cm^2 and after 16-24 hours were transfected with a total amount of 3 μg of DNA using Lipofectamine (Life Technologies Inc). Following a 4-6 hours of incubation, the transfection mix was replaced with fresh medium containing 10% charcoal-stripped serum and treatments were initiated.

ERα [2] = biological target: T1, ERα; experiment: ERE-luc transcription in HeLa cells transfected with ERα; format: cell-based; design: expression vectors encoding the full length ERα or its E domain; expressed in transfected cells; host or cells: HeLa; settings: ERα carrying HeLa cells, 10^−8 M E2
Source text: as §1, §2, §3

ERβ [3] = biological target: T2, ERβ (Homo sapiens, UniProt Q92731); experiment: IL-6-luc transcription in HeLa cells transfected with ERβ; format: cell-based; design: expressed in transfected cells; host or cells: HeLa; settings: ERβ carrying HeLa cells, 10^−8 M E2
Source text: as §1, §2, §3

ERβ [4] = biological target: T2, ERβ; experiment: Etoposide-induced apoptosis in HeLa cells transfected with ERβ; settings: peptide co-transfected, 10^−8 M E2
ERβ [5] = biological target: T2, ERβ; experiment: ERE-luc transcription in HeLa cells transfected with ERβ; format: cell-based; design: expressed in transfected cells; host or cells: HeLa; settings: ERβ carrying HeLa cells, 10^−8 M E2
Source text: as §1, §2, §3

ERα [6] = biological target: T1, ERα; experiment: Etoposide-induced apoptosis in HeLa cells transfected with ERα
ERK1/2 = experiment: ERK phosphorylation in MLO-Y4 cells (Western blot); format: cell-based; settings: inhibitor 25 min, then 5 min E2 or DHT
Procedure: Western blot analysis. The phosphorylation status of ERK1/2 was analyzed by immunoblotting using a mouse monoclonal antibody recognizing tyrosine phosphorylated ERK1/2, or a rabbit polyclonal antibody recognizing total ERK1/2, followed by incubation with either an anti-mouse or an anti-rabbit antibody conjugated with horseradish peroxidase (Santa Cruz Biotechnology).

E domain of the ER = experiment: Etoposide-induced apoptosis in HeLa cells transfected with the E domain of ERα; format: cell-based, human
Procedure: as §2, §3

[7] = system: osteocytic cell line MLO-Y4; experiment: Apoptosis of MLO-Y4 osteocytic cells (trypan blue); format: cell-based; settings: inhibitor 30 min prior to E2 or DHT; etoposide 6 hours
AR = biological target: T3, AR (Homo sapiens, UniProt P10275); experiment: Etoposide-induced apoptosis in HeLa cells transfected with AR
T3 sequence (P10275 1-920): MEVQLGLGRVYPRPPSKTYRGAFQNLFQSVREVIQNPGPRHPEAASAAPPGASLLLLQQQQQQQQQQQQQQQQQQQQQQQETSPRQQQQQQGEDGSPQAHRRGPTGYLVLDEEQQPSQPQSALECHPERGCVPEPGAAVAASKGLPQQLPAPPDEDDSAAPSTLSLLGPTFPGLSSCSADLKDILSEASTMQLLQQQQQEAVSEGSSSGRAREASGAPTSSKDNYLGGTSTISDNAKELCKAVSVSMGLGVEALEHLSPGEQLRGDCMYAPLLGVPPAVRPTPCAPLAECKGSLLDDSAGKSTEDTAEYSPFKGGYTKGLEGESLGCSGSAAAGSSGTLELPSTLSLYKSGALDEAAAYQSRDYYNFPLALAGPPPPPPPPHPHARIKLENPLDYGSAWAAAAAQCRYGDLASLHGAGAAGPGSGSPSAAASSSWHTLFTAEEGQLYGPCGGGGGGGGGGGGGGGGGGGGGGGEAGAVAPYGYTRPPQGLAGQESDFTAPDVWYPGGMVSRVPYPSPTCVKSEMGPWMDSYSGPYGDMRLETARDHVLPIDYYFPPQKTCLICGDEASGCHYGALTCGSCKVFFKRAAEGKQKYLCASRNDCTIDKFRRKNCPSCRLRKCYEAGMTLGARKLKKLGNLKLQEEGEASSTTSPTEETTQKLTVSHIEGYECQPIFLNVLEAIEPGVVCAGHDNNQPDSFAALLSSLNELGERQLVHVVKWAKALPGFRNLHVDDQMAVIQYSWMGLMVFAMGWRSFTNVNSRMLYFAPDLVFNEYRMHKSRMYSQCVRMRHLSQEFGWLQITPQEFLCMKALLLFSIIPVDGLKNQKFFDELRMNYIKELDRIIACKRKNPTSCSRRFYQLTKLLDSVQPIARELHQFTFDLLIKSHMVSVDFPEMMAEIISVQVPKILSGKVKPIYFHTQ

[8] = system: calvaria-derived murine osteoblastic cells; experiment: Apoptosis of calvaria-derived osteoblastic cells (trypan blue); settings: etoposide-induced apoptosis
ERα [9] = biological target: T1, ERα; experiment: C3-luc transcription in HeLa cells transfected with ERα; format: cell-based; design: expression vectors encoding the full length ERα or its E domain; expressed in transfected cells; host or cells: HeLa; settings: HeLa with C3-luc and ERα
Procedure: A. For C3-mediated transcription, HeLa cells were transfected with C3-luc and ERα, and were treated with the indicated concentrations of an estren or a pyrazole. Bars represent the mean±SD of the relative luciferase units (RLU) normalized for β-galactosidase activity. p<0.05 versus cells transfected with empty vector (ev), by ANOVA. The anti-apoptotic activity of the estren and the pyrazole was evaluated in calvaria-derived osteoblasts as described in FIG. 1B. * p<0.05 versus cells not treated with etoposide by ANOVA. B. MLO-Y4 cells were incubated for 5, min with the indicated concentrations of the different ligands and ERK phosphorylation was assessed as in FIG. 4A.
DNA constructs. Reporter plasmids carrying the 2.25 Kb of the human IL-6 promoter, 3 copies of the vitellogenin ERE sequences, or the complement 3 promoter driving the firefly luciferase gene (IL-6-luc, ERE-luc, and C3-luc, respectively) were used to assay transcriptional effects of the steroids. The expression plasmids of ER peptide antagonists carrying either αII, or two copies of 293 (2x293) , or two copies of F6 (2xF6) or GRIP fused to the GAL4 DNA binding domain driven by the SV40 promoter have been described previously (Norris, J. D. et al. (1999) Science 285, 744-746). The sequences of the peptides are disclosed in Chang et al. (1999) Mol. Cell. Bio. 19:8226-8239 which is incorporated herein in its entirety. […]

[10] = system: retinoid X receptor (RXR); experiment: Etoposide-induced apoptosis in HeLa cells transfected with RXR

T2 sequence (Q92731 whole entry, species assumed): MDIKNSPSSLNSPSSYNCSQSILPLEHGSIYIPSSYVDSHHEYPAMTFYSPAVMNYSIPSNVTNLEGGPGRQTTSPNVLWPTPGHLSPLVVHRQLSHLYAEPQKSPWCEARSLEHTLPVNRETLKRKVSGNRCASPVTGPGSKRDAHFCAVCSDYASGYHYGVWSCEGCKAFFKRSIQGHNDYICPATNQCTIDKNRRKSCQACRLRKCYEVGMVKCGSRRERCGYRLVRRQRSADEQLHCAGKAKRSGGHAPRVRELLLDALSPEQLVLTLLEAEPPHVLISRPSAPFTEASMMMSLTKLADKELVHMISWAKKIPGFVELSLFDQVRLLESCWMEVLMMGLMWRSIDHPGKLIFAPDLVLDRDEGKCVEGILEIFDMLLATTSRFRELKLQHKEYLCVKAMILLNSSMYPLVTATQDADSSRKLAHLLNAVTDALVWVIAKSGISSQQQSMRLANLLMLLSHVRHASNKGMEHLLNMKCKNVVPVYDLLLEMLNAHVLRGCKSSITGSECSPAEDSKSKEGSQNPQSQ

F6: peptide GHEPLTLLERLLMDDKQAV (SEQ ID NO.: 3) interacting with both ERα and ERβ; two copies expressed as GAL4 fusion (also: two copies fused to GAL4 DNA binding domain)
effect of peptide on E2-induced decrease in IL-6-Luc transcription (ERα [1]): blocked | effect of peptide on E2-induced ERE-Luc transcription (ERα [2]): blocked | effect of peptide on E2 effect on IL-6-Luc transcription (ERβ [3]): blocked | effect of peptide on the anti-apoptotic activity of ERβ (E2) (ERβ [4]): blocked | effect of peptide on E2-induced ERE-Luc transcription (ERβ [5]): blocked | effect of peptide on the anti-apoptotic activity of ERα (E2) (ERα [6]; peptide co-transfected, 10^−8 M E2): blocked

COc1cccc(-c2cc(=O)c3ccccc3o2)c1N [PD98059]
effect of inhibitor on induction of ERK phosphorylation by E2 or DHT (ERK1/2): blocked | effect of inhibitor on anti-apoptotic activity, compared with full length ERα (E domain of the ER): exactly the same effects | effect of inhibitor on the anti-apoptotic effect of E2 and DHT [7]: completely abrogated | effect of antagonist/inhibitor on the anti-apoptotic effect of E2 or DHT (ERα [6]; HeLa transfected with ERα): abrogated | effect of antagonist/inhibitor on the anti-apoptotic effect of E2 or DHT (AR): abrogated

estren
anti-apoptotic efficacy on primary calvaria cells [8]: potent anti-apoptotic efficacy | transcriptional activity on the C3 gene (C3-luc) (ERα [9]): no transcriptional activity

c1cn[nH]c1 [pyrazole]
anti-apoptotic efficacy on primary calvaria cells [8]: minimal anti-apoptotic efficacy | transcriptional activity on the C3 gene (C3-luc) (ERα [9]): potent transcriptional activity

C=C1/C(=C\C=C2/CCC[C@]3(C)[C@@H]([C@H](C)CCCC(C)(C)O)CC[C@@H]23)C[C@@H](O)C[C@@H]1O [1,25(OH)2D3, 1,25-dihydroxy-Vitamin D3]
prevention of etoposide-induced apoptosis [10]: prevented apoptosis
